Measurements reported in ChEMBL document CHEMBL2094269, “WEHI/Eskitis Trypanosoma b. brucei screening data”.

Tested on: Trypanosoma brucei brucei
Assay: microbe, parasite or virus in culture
Type: functional, organism-based, STIB 795
Conditions: Trypanosoma brucei, STIB 795
Description: DNDI: Inhibition of Human African Trypanosomiasis (HAT), STIB 795, in vitro

Row | SMILES | IC50 [µM]
1 | COc1ccc2nc(C)cc(Nc3ccc(N4CCOCC4)cc3)c2c1 | > 10.4
2 | O=C(Nc1nc(-c2ccccn2)cc2ccccc12)c1cccc(Cl)c1 | > 10.4
3 | CN(C)S(=O)(=O)c1ccc2nc(NC(=O)c3cccs3)sc2c1 | > 10.4
4 | COc1cccc(C(=O)Nc2ccc3nc(N4CCOCC4)cc(C)c3c2)c1 | > 10.4
5 | CCOC(=O)c1ccc(Nc2nc(-c3cccnc3)nc3ccccc23)cc1 | > 10.4
6 | CC1CCN(S(=O)(=O)c2ccc3c4c2CC(=O)N4CC(C)S3)CC1 (stereo unspecified) | > 10.4
7 | Oc1c(C(c2ccccn2)N2CCCCC2)cc(Cl)c2cccnc12 (stereo unspecified) | > 10.4
8 | CN(C)S(=O)(=O)c1ccc(C(=O)Nc2nnc(-c3cccs3)o2)cc1 | > 10.4
9 | CC(NC(=O)c1cc(S(=O)(=O)N2CCCC2)cn1C)c1ccccc1 (stereo unspecified) | > 10.4
10 | CC(=O)C1=C(c2ccc(Br)cc2)C(=O)c2ccccc2C1=O | > 10.4
11 | COc1ccccc1CCNCc1ccc(OC)c(OCc2ccccc2)c1 | > 10.4
12 | N#CC1=C(N)NC(SCc2ccc(F)cc2)=C(C#N)C12CCCCC2 | > 10.4
13 | Clc1ccc(-c2nnc(NCCN3CCCC3)c3ccccc23)cc1 | > 10.4
14 | CCOc1cc(CNC2CCCC2)cc(Cl)c1OCc1ccccc1 | > 10.4
15 | CCOc1cccc(CNCCO)c1OCc1ccc(Cl)cc1Cl | > 10.4
16 | CC(NCC(O)COCCC12CC3CC(CC(C3)C1)C2)c1ccccc1 (stereo unspecified) | > 10.4
17 | CN1CCC(Oc2ccccc2Sc2ccc(C(F)(F)F)cc2)CC1 | > 10.4
18 | Fc1ccc(C(OCCN2CCCC2)c2ccc(Br)cc2)cc1 (stereo unspecified) | > 10.4
19 | CN1CCN(C2Cc3ccccc3Sc3cc(C(F)(F)F)ccc32)CC1 (stereo unspecified) | > 10.4
20 | N=c1n(Cc2ccccc2Cl)c2ccccc2n1CC(O)c1ccco1 (stereo unspecified) | > 10.4
21 | O=C(N/N=C\c1c(O)ccc2ccccc12)c1ccc(Cn2cccn2)o1 | > 10.4
22 | OC(COCc1ccc(Cl)cc1)CN1CCC(Cc2ccccc2)CC1 (stereo unspecified) | > 10.4
23 | O=C(CC1(O)C(=O)Nc2ccc(Br)cc21)c1ccccn1 (stereo unspecified) | > 10.4
24 | C/C(=N\N1C(=O)c2ccccc2NC1c1ccco1)c1ccccc1O (stereo unspecified) | > 10.4

Row | SMILES | IC50 [µM]
25 | CCCC1(CCC)c2ccccc2C(=CCCN(C)C)c2ccccc21 | > 10.4
26 | CCOc1nc(Nc2ccc(Cl)cc2)nc(NC2CCCCC2)n1 | > 10.4
27 | Cc1cc(C(=O)N/N=C/c2cc(/N=N/c3ccccc3)ccc2O)[nH]n1 | > 10.4
28 | COC(=O)CCC/C=C1/SC[C@@H](NC(=O)c2ccccc2)/C1=N/O | > 10.4
29 | N#Cc1c(N)nc(SCc2ccccc2)c(C#N)c1C1CCCCC1 | > 10.4
30 | OC(CNCCc1ccccc1)Cn1c2c(c3ccccc31)CCCC2 (stereo unspecified) | > 10.4
31 | O=C(N/N=C/c1ccc(Br)cc1O)c1n[nH]c2c1CCC2 | > 10.4
32 | O=C(Nc1ccccc1C(=O)N/N=C/c1ccccc1O)c1ccco1 | > 10.4
33 | CC(=O)c1sc(Nc2nc(NC(C)C)nc(NC(C)C)n2)nc1C | > 10.4
34 | N#Cc1c(Cl)ncc2c1Nc1ccccc1C2Sc1ccccc1 (stereo unspecified) | > 10.4
35 | Cc1nc(N)nc(N)c1[C@@H]1CCC[C@@H](c2ccc(C(F)(F)F)cc2)C1 | > 10.4
36 | CCc1cc(-c2n[nH]c(C)c2-c2nc3ccccc3s2)c(O)cc1O | > 10.4
37 | Nc1ccccc1SC(CC(=O)c1ccc(F)cc1)c1ccccc1 (stereo unspecified) | > 10.4
38 | O=C1C(=O)N(Cc2cc(F)cc(F)c2)c2ccc(Br)cc21 | > 10.4
39 | O=C(O/N=C(/c1ccc2c(c1)OCO2)N1CCCCC1)c1ccccc1 | > 10.4
40 | C=CCNC(=O)CCCc1nc2cccnc2n1Cc1ccc(F)cc1 | > 10.4
41 | CC(C)(C)C(=O)Nc1cccc(NC(=O)c2ccc(C(C)(C)C)cc2)c1 | > 10.4
42 | CCCN1C/C(=C/c2cccc(F)c2)C(=O)/C(=C/c2cccc(F)c2)C1 | > 10.4
43 | O=C(N/N=C/c1cc(Cl)ccc1O)c1ccccc1Br | > 10.4
44 | CC1(C)CC(=O)C(C2(O)C(=O)Nc3ccc(Br)cc32)CO1 (stereo unspecified) | > 10.4
45 | NC(=S)N/N=C/c1ccc(OCc2c(Cl)cccc2Cl)cc1 | > 10.4
46 | COc1ccc(-c2noc(CCC(=O)Nc3ccncc3)n2)cc1OC | > 10.4
47 | Cn1c(=O)n(C)c2cc(N3CCCCC3)c(NC(=O)c3ccco3)cc21 | > 10.4
48 | Cc1nc2ncnn2c(Sc2ccc(NC(=O)CC(C)C)cc2)c1C | > 10.4

Row | SMILES | IC50 [µM]
49 | CCOC(=O)Cc1csc(NC(=S)NC(=O)C2CCCCC2)n1 | > 10.4
50 | Clc1ccc(C(=C2CN3CCC2CC3)c2ccc(Cl)s2)s1 | > 10.4
51 | COc1ccccc1C(=O)NCCc1csc(-c2cccc(F)c2)n1 | > 10.4
52 | Fc1ccc(C2CCCN(CCN3CCCC3)c3cc(F)ccc32)cc1 (stereo unspecified) | > 10.4
53 | Cc1nc(NC(C)(C)C)c2sc3nc4c(cc3c2n1)COC(C)(C)C4 | > 10.4
54 | O=C1c2ccc(Cl)c3c(Cl)ccc(c23)C(=O)N1Nc1ccccc1 | > 10.4
55 | CCC(C)(CC)c1ccc(C(CN)c2ccc(-c3ccccc3)cc2)cc1 (stereo unspecified) | > 10.4
56 | O=C(N/N=C/c1ccc(-c2ccc(Br)cc2)o1)c1ccco1 | > 10.4
57 | COc1ccc(-c2n/c(=N/c3ccccc3)sn2-c2ccccc2)cc1 | > 10.4
58 | Cc1ccc(Nc2nc3nonc3nc2NC(C)c2ccccc2)cc1C (stereo unspecified) | > 10.4
59 | Cc1ccc(C2=NC(c3ccccc3F)NC(c3ccccc3O)C2)cc1 (stereo unspecified) | > 10.4
60 | CC1(C)CC(NC(=O)c2ccc(C#Cc3ccccc3)cc2)CC(C)(C)N1 | > 10.4
61 | Fc1ccc(OCc2nn3c(-c4ccccc4Cl)nnc3s2)cc1 | > 10.4
62 | COc1ccccc1NCN1C(=O)C(=O)c2cc(Br)ccc21 | > 10.4
63 | CCOC(=O)c1c(C)[nH]c2c1-c1cc(Br)ccc1C(=O)C2=O | > 10.4
64 | Cc1occc1C(=O)N/N=C/c1ccc(-c2ccc(Cl)cc2Cl)o1 | > 10.4
65 | Cc1cnn(-c2cc(N/N=C/c3cc(Cl)cc(Cl)c3O)ncn2)c1 | > 10.4
66 | C/C(=N\NC(=O)c1ccc(C)c(Br)c1)c1ccc(O)cc1O | > 10.4
67 | C=C(CC(CN1CCOCC1)C(=O)c1ccccc1)C(=O)c1ccccc1 (stereo unspecified) | > 10.4
68 | OC(CNCc1ccccc1)COc1cc2ccsc2c2ccccc12 (stereo unspecified) | > 10.4
69 | CCN(CC(O)COCCC12CC3CC(CC(C3)C1)C2)C1CCCCC1 (stereo unspecified) | > 10.4
70 | CC(C)(C)N(NC(=O)Nc1ccc(Cl)cc1)C(=O)c1ccccc1F | > 10.4
71 | CN1CCC(C2Oc3ccc(F)cc3Sc3ccc(Cl)cc32)CC1 (stereo unspecified) | > 10.4
72 | C=CCn1c(=O)c(=O)n(CCC(=O)NCc2cccnc2)c2ccccc21 | > 10.4

Row | SMILES | IC50 [µM]
73 | COc1ccc(C(=O)CC(SCCO)c2ccc(F)cc2)cc1OC (stereo unspecified) | > 10.4
74 | Cc1cc(C(=O)CN2CCCCC2)c(C)n1-c1ccc(Cl)c(Cl)c1 | > 10.4
75 | O=C(N/N=C/c1cc(Cl)ccc1O)c1cc(C2CC2)nc2ccccc12 | > 10.4
76 | COC(C(=O)NCc1ccc(Cl)cc1)(c1ccccc1)c1ccccc1 | > 10.4
77 | CCn1c2ccccc2c2cc(NC(=O)C(=O)NCCCN(C)C)ccc21 | > 10.4
78 | CCCC(=O)NC(c1ccc(SC)cc1)c1ccc2cccnc2c1O (stereo unspecified) | > 10.4
79 | CC(C)(C)c1cc(C(c2ccncc2)N2CCCC2)cc(C(C)(C)C)c1O (stereo unspecified) | > 10.4
80 | CC1CN(C(=O)c2ccc(COc3ccc(C(C)C)cc3)cc2)CC(C)O1 (stereo unspecified) | > 10.4
81 | O=C(Nc1ccc(Cl)c(-c2nc3ncccc3o2)c1)c1cccc(F)c1 | > 10.4
82 | COC(=O)C1=C(C)N(c2ccccc2)/C(=C/c2cccc3ccccc23)C1=O | > 10.4
83 | CCN(CC)C(=O)c1ccc(Nc2ccnc3cc4ccccc4cc23)cc1 | > 10.4
84 | O=C(N/N=C/c1cc(Cl)cc(Br)c1O)c1ccccc1O | > 10.4
85 | Cn1c(NC(=O)c2ccccc2NC(=O)c2ccccc2)nc2ccccc21 | > 10.4
86 | CN(C)c1ccc(C2(c3ccc(N(C)C)cc3)C=Cc3ccccc3O2)cc1 | > 10.4
87 | CCC(=O)N1CCN(c2oc(/C=C/c3ccc(Cl)cc3)nc2C#N)CC1 | > 10.4
88 | CNC(=O)c1c[nH]c2ccc(S(=O)(=O)Nc3ccccc3C)cc2c1=O | > 10.4
89 | Cn1c(=O)sc2cc(S(=O)(=O)Nc3cccc4cccnc34)ccc21 | > 10.4
90 | COc1ccc(C(CC(=O)c2ccco2)SCc2ccco2)cc1OC (stereo unspecified) | > 10.4
91 | Cc1ccc(C(CNC(=O)COc2ccc(Cl)cc2)N2CCCC2)cc1 (stereo unspecified) | > 10.4
92 | O=C(Nc1nc(-c2ccncc2)cs1)c1ccc(Oc2ccccc2)cc1 | > 10.4
93 | CSc1ccc(C(Nc2ccccn2)c2ccc3cccnc3c2O)cc1 (stereo unspecified) | > 10.4
94 | CC1CC(OCC(O)CN2CCC(Cc3ccccc3)CC2)CC(C)(C)C1 (stereo unspecified) | > 10.4
95 | O=C(/C=C/c1ccccc1)Nc1c(-c2ccccc2)nc2ccc(Cl)cn12 | > 10.4
96 | OC(c1ccc(Cl)s1)(c1ccc(Cl)s1)C1CN2CCC1CC2 (stereo unspecified) | > 10.4

Row | SMILES | IC50 [µM]
97 | Cc1ccc(-c2csc3ncnc(N/N=C/c4cc(C)ccc4O)c23)cc1 | > 10.4
98 | C/C(=C\c1nsc(Nc2ccc(F)c(Cl)c2)n1)Nc1ccc(C)cc1 | > 10.4
99 | O=c1oc2c(cc(NS(=O)(=O)c3ccc(F)cc3)c3ccccc32)s1 | > 10.4
100 | OC(C#CCN1CCOCC1)(c1ccc(Cl)cc1)c1cccc(Cl)c1 (stereo unspecified) | > 10.4
101 | OCCNCc1c(OCc2ccc(Cl)cc2Cl)ccc2ccccc12 | > 10.4
102 | COC(=O)c1cc(-c2ccccc2)nc2c1C(=O)C(=O)C=C2N1CCCCC1 | > 10.4
103 | CC(C)CNC(=O)Nc1cccc(-c2noc(C3(c4ccccc4)CC3)n2)c1 | > 10.4
104 | CN(C)c1ccc(C(Nc2nccs2)c2ccc3cccnc3c2O)cc1 (stereo unspecified) | > 10.4
105 | CCN1c2ccccc2NC2=C(C(=O)CC(C)(C)C2)C1c1ccc(OC)cc1 (stereo unspecified) | > 10.4
106 | OC(CNCCc1ccccc1)CN1c2ccccc2Sc2ccccc21 (stereo unspecified) | > 10.4
107 | O=C(N/N=C\c1ccc(-c2cccc(Cl)c2Cl)o1)c1ccc(F)cc1 | > 10.4
108 | N#Cc1cc(C#N)c(SCC(=O)Nc2cccc(C(F)(F)F)c2)nc1N | > 10.4
109 | C=CCN1C(=O)c2[nH]nc(-c3c(C)cc(C)cc3O)c2C1c1ccc(F)cc1 (stereo unspecified) | > 10.4
110 | Cc1ccc(Nc2cc(C)nc(N3CCN(C(=O)c4ccco4)CC3)n2)cc1 | > 10.4
111 | COc1cccc(/C=C2/CN(C(C)C)C/C(=C\c3cccc(OC)c3)C2=O)c1 | > 10.4
112 | CCOc1cccc(/C=N/NC(=O)c2cc(-c3ccc(CC)cc3)n[nH]2)c1O | > 10.4
113 | OCCN1CCN(Cc2ccccc2Sc2ccc3ccccc3c2)CC1 | > 10.4
114 | O=C(Nc1nc(NC(=O)c2ccco2)n(-c2ccccc2)n1)c1ccccc1 | > 10.4
115 | CC(C)C(=O)NC(c1cccs1)c1cc(Cl)c2cccnc2c1O (stereo unspecified) | > 10.4
116 | Cc1ccc(Nc2nc3c(N)nnc(N)c3nc2Nc2ccc(C)cc2)cc1 | > 10.4
